Measurements taken from US20170266266A1, “Functions of 55 Newfound Proteins and Their Medicinal Application in the Treatment and Prevention of Disease” (priority 2012, published 2017).
“And” between values parts separate entries of the source, which are not always exact repeats. Equal values may be shown once. Read-outs that look alike come from different tables or passages of the source.

Experiments:
[1] = test system: SK-OV-3-luc ovarian cancer; test: Ovarian cancer survival in mice; type: in vivo; settings: group mean, study still ongoing
From the text: Ovarian cancer study has been conducted at Wuxi AppTec under Dr. Yong Cang and the study is still ongoing as of Aug. 4, 2013. However in order to show the comparison mean days of the death of the mice in each group to compare with the positive drug group which has 76.8 days.
Bioluminescent images of RAAS-20120628-SK-OV-3-luc for all groups.
At day 63 after ovarian cancer has started an experiment of Kieu Hoang AFCC TM by oral application of four mice left from the entire group. That means that by day 63 ovarian cancer has already developed. In the beginning we forced the mice to drink without water, therefore the mice died in early stage.

[2] = test system: fatty streak lesions in rabbits on high fat diet; type: in vivo, rabbit; design: HDL-C, Wk 0 / HDL-C, Wk 18 or wk 21 / Fatty streak lesions area, Compare to wk 10 of control group / Fatty streak lesions area, Compare to wk 18 of control group: unit not given here; settings: for lipid con. at dissected aorta: triglyceride content; for increase of area of fatty streak lesion: control group 187%
Procedure: The rabbits were fasted for 12 hrs before the beginning of the experiments. Blood parameters were then tested as the normal level of plasma indicators. A total of 52 rabbits were purchased at different time, four of them were used as normal control and fed with normal diet the whole time during the experiments. […] Plasma concentrations of total cholesterol (TC), […] (TG), low density lipoprotein-cholesterol (LDL-C), very low density lipoprotein-cholesterol (VLDL-C), high density lipoprotein-cholesterol (HDL-C) were quantified by enzymatic assays. TC/HDL-C or ([…] ratios were then determined. Animals were sacrificed under deep anesthesia with sodium pentobarbital 25 mg/kg IV. The entire aorta from the aortic valve to the iliac bifurcation was removed from each rabbit and opened longitudinally. […] Atheromatous lesions were measured without staining Atheromatous lesions were manually traced in the photographs, and the percent area of the atheromatous lesions was calculated. Sample of aorta from animals were homogenated. And the content of lipid was determined.

[3] = APOA1 group 1, Wk 0 (start of high fat diet)
[4] = APOA1 group 1, Wk 10 (before APOA1 administration)
[5] = APOA1 group 1, Wk 18 (end of APOA1 administration)
[6] = APOA1 group 2, Wk 0 (start of high fat diet)
[7] = APOA1 group 2, Wk 10 (before APOA1 administration)
[8] = APOA1 group 2, Wk 21 (end of APOA1 administration)

In the case of human Apolipoprotein AI [APOAI], the “Mean Survival Time” value [1] is reported as 115.8 days, the TC/HDL-C [2, 3] is reported as 1.938 and the “plasma HDL-C” value [2, 3] is reported as 0.748. The “plasma LDL-C” value [2, 3] was 0.282, the “plasma TCH” value [2, 3] was 1.152 and the “plasma TG” value [2, 3] was 0.967. For the same substance, the “plasma VLDL-C” value [2, 3] was 0.870, the TC/HDL-C [2, 4] was 6.560 and the “plasma HDL-C” value [2, 4] was 8.261. The “plasma LDL-C” value [2, 4] was 21.157, the “plasma TCH” value [2, 4] was 36.153 and the “plasma TG” value [2, 4] was 5.191. The “plasma VLDL-C” value [2, 4] was 14.996, the TC/HDL-C [2, 5] was 3.000 and the “plasma HDL-C” value [2, 5] was 1.46. The “plasma LDL-C” value [2, 5] was 2.60, the “plasma TCH” value [2, 5] was 3.69 and the “plasma TG” value [2, 5] was 1.17. For the same substance, the “plasma VLDL-C” value [2, 5] was 1.09, the TC/HDL-C [2, 6] was 4.185 and the “plasma HDL-C” value [2, 6] was 0.432. For the same substance, the “plasma LDL-C” value [2, 6] was 0.472, the “plasma TCH” value [2, 6] was 1.430 and the “plasma TG” value [2, 6] was 0.93. The “plasma VLDL-C” value [2, 6] was 0.958, the TC/HDL-C [2, 7] was 3.667 and the “plasma HDL-C” value [2, 7] was 10.168. For the same substance, the “plasma LDL-C” value [2, 7] was 19.24, the “plasma TCH” value [2, 7] was 34.683 and the “plasma TG” value [2, 7] was 4.507. For the same substance, the “plasma VLDL-C” value [2, 7] was 15.443, the TC/HDL-C [2, 8] was 3.844 and the “plasma HDL-C” value [2, 8] was 1.17. The “plasma LDL-C” value [2, 8] was 2.19, the “plasma TCH” value [2, 8] was 3.322 and the “plasma TG” value [2, 8] was 1.94. The “plasma VLDL-C” value [2, 8] was 1.14, the “HDL-C, Wk 0” value ([2]; APOAI Group 1) was 0.748 and the “lipid con. at dissected aorta” value ([2]; APOAI Group 1 (n = 7)) was 0.025 ± 0.0095 µmol/mg. The “Fatty streak lesions area” value ([2]; APOAI Group 1, Wk 18) was 43.84%, the “Fatty streak lesions area, Compare to wk 10 of control group” value ([2]; APOAI Group 1, Wk 18) was 19.03 and the “Fatty streak lesions area, Compare to wk 18 of control group” value ([2]; APOAI Group 1, Wk 18) was −27.36. The “Fatty streak lesions area, Decrease % (compare to wk 18 of control group)” value ([2]; APOAI Group 1, Wk 18) was 38.43%, the “Fatty streak lesions area, Increase % (compare to wk 10 of control group)” value ([2]; APOAI Group 1, Wk 18) was 77% and the “HDL-C, Concentration increased” value ([2]; APOAI Group 1, wk 0 to wk 18) was 0.716. For the same substance, the “HDL-C, Fold increased” value ([2]; APOAI Group 1, wk 0 to wk 18) was 1.436, the “HDL-C, Wk 0” value ([2]; APOAI Group 2) was 0.432 and the “lipid con. at dissected aorta” value ([2]; APOAI Group 2 (n = 4)) was 0.0267 ± 0.0054 µmol/mg. The “Fatty streak lesions area” value ([2]; APOAI Group 2, Wk 21) was 50.51%, the “Fatty streak lesions area, Compare to wk 10 of control group” value ([2]; APOAI Group 2, Wk 21) was 25.71 and the “Fatty streak lesions area, Compare to wk 18 of control group” value ([2]; APOAI Group 2, Wk 21) was −20.69. The “Fatty streak lesions area, Decrease % (compare to wk 18 of control group)” value ([2]; APOAI Group 2, Wk 21) was 29.05%, the “Fatty streak lesions area, Increase % (compare to wk 10 of control group)” value ([2]; APOAI Group 2, Wk 21) was 104% and the “HDL-C, Concentration increased” value ([2]; APOAI Group 2, wk 0 to wk 21) was 0.992. For the same substance, the “HDL-C, Fold increased” value ([2]; APOAI Group 2, wk 0 to wk 21) was 3.078, the “HDL-C, Wk 18 or wk 21” value ([2]; APOAI group 1 (wk 18)) was 1.464 and the “decrease of area of fatty streak lesion vs control group” value ([2]; APOAI group 1 (wk 18)) was 38% and 38.43%. For the same substance, the “TC/HDL-C vs control group” value ([2]; APOAI group 1, P<0.05) was “significant decrease”, the “VLDL-C vs control group” value ([2]; APOAI group 1, P<0.05) was “significant decrease” and the “increase of area of fatty streak lesion” value ([2]; APOAI group 1) was 77%. The “rest of plasma lipid values vs control group” value ([2]; APOAI group 1 and 2) was “no significant change”, the “HDL-C, Wk 18 or wk 21” value ([2]; APOAI group 2 (wk 21)) was 1.423 and the “decrease of area of fatty streak lesion vs control group” value ([2]; APOAI group 2 (wk 21)) was 29% and 29.05%. For the same substance, the “increase of area of fatty streak lesion” value ([2]; APOAI group 2) was 104%, the “triglyceride content at dissected aorta vs control group” value ([2]; P<0.05) was “significantly lower” and the “liver index vs control group” value ([2]; rabbit, in vivo) was “no difference”. The “plasma lipid concentrations (TC, TG, LDL-C, VLDL-C, HDL-C)” value ([2]; vs animal without APOAI treatment) was “decrease in all plasma lipid concentrations”, the “gross examination of inner surface of aorta” value ([2]; vs control group) was “no bumps on the inner surface of aorta” and the liver gross specimen ([2]; vs wk 10) was “less fatty change in gross specimen”.
